Measured values from patent publication US20240376097A1, “BCL-2 Inhibitor” (BeiGene Ltd., priority 2020, published 2024).

Columns and labels:
[1] = target: recombinant human Bcl-2-G101V protein (Homo sapiens (Human), UniProt P10415, G101V); test: Bcl-2-G101V TR-FRET Assay; assay type: binding; conditions: Bcl-2 G101V mutant, TR-FRET; read-out: Biochemical assay (IC50, nM) Bcl-2 G101V
In short: (§1)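 Displacement of ligand from recombinant human Bcl-2-G101V measured by TR-FRET (ex337 nm, em490/520 nm), inhibition derived from the 490/520 ratio across compound titrations. IC50 from four-parameter logistic fit.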

[2] = tested on: recombinant human Bcl-2-G101V protein; test: Bcl-2-G101V TR-FRET Assay; assay type: binding; conditions: for Ratio of Bcl-2 G101V/WT: ratio of biochemical IC50 Bcl-2 G101V / Bcl-2 WT; for ratio of IC50 of Bcl-2 G101V/Bcl-2 wt, compared with Example F132b in WO2019210828 and ABT-199 (venetoclax): comparison in words
In short: as §1

[3] = tested on: BCL-2 G101V knock-in cell line H96 (derive from RS4;11); test: Bcl 2-G101V Knock-In RS4;11 Cell Proliferation Assay; assay type: cell-based; conditions: Homo sapiens, RS4-11, 48 h, RS4;11 Bcl-2 G101V knock-in clone H96, 48 hrs, CellTiter-GLO, read-out: Cellular proliferation assay (IC50, nM) RS4
In short: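 H96, a CRISPR-generated RS4;11 clone carrying BCL2-G101V knock-in (WES/RNA-seq validated), seeded 50,000 per well and exposed 48 h at 37 °C to 10-point dilutions topping at 1 or 10 μM. Viability by CellTiter-Glo luminescence; mean IC50.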

[4] = Metabolic Stability Study, liver microsome incubation (human); assay type: in vitro ADME; conditions: human liver microsomes 0.5 mg/mL, 1 μM compound, NADPH; for half-life at 1 μM: NA^# = very stable, beyond the detection limits, read-out: T1/2 (min) Human; for microsomal CLint at 1 μM: read-out: CLint (μL × min^−1 × mg^−1) Human
In short: (§2)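 Test compounds (1 μM) incubated at 37° C with 0.5 mg/mL liver microsomes plus NADPH regenerating system; samples quenched at 0, 30 and 60 min. Parent loss measured by LC-MS/MS, giving CLint and T1/2, with CLint normalised to microsomal protein concentration.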

[5] = Metabolic Stability Study, liver microsome incubation (mouse); assay type: in vitro ADME; conditions: mouse liver microsomes 0.5 mg/mL, 1 μM compound, NADPH; for half-life at 1 μM: NA^# = very stable, beyond the detection limits, read-out: T1/2 (min) mouse; for microsomal CLint at 1 μM: read-out: CLint (μL × min^−1 × mg^−1) mouse
In short: as §2

| Structure (SMILES) | IC50 [1] [nM] | Ratio of Bcl-2 G101V/WT [2] | IC50 [3] [nM] | half-life at 1 μM [4] [min] | microsomal CLint at 1 μM [4] [µL/min/mg] | half-life at 1 μM [5] [min] | microsomal CLint at 1 μM [5] [µL/min/mg] | ratio of IC50 of Bcl-2 G101V/Bcl-2 wt, compared with Example F132b in WO2019210828 and ABT-199 (venetoclax) [2] |
| --- | --- | --- | --- | --- | --- | --- | --- | --- |
| COc1cc(CN2CCN(C3CC4(C3)CN(c3ccc(C(=O)NS(=O)(=O)c5ccc(NC[C@H]6CC[C@](C)(O)CC6)c([N+](=O)[O-])c5)c(Oc5cnc6[nH]cc(F)c6c5)c3)C4)[C@H](c3ccccc3C(C)C)C2)cc(F)c1OC [Example 230, 2-((3-fluoro-1H-pyrrolo[2,3-b]pyridin-5-yl)oxy)-4-(6-((R)-4-(3-fluoro-4,5-dimethoxybenzyl)-2-(2-isopropylphenyl)piperazin-1-yl)-2-azaspiro[3.3]heptan-2-yl)-N-((4-((((1r,4r)-4-hydroxy-4-methylcyclohexyl)methyl)amino)-3-nitrophenyl)sulfonyl)benzamide] | 0.52 | 2.8 | 0.28 | 373 | 3.7 | 183 | 7.6 | – |
| COc1cc(CN2CCN(C3CC4(C3)CN(c3ccc(C(=O)NS(=O)(=O)c5ccc(NC[C@H]6CC[C@](C)(O)CC6)c([N+](=O)[O-])c5)c(Oc5cnc6[nH]cc(F)c6c5)c3)C4)[C@H](c3ccccc3C(C)C)C2)ccc1C1CC1 [Example 232, 4-(6-((R)-4-(4-cyclopropyl-3-methoxybenzyl)-2-(2-isopropylphenyl)piperazin-1-yl)-2-azaspiro[3.3]heptan-2-yl)-2-((3-fluoro-1H-pyrrolo[2,3-b]pyridin-5-yl)oxy)-N-((4-((((1r,4r)-4-hydroxy-4-methylcyclohexyl)methyl)amino)-3-nitrophenyl)sulfonyl)benzamide] | 1.3 | 1.8 | 0.19 | 822 | 1.7 | 206 | 6.7 | much lower |
| COc1cc(CN2CCN(C3CC4(C3)CN(c3ccc(C(=O)NS(=O)(=O)c5ccc(NC[C@H]6CC[C@](C)(O)CC6)c([N+](=O)[O-])c5)c(Oc5cnc6[nH]ccc6c5)c3)C4)[C@H](c3ccccc3C(C)C)C2)ccc1C1CC1 [Example 233, 2-((1H-pyrrolo[2,3-b]pyridin-5-yl)oxy)-4-(6-((R)-4-(4-cyclopropyl-3-methoxybenzyl)-2-(2-isopropylphenyl)piperazin-1-yl)-2-azaspiro[3.3]heptan-2-yl)-N-((4-((((1r,4r)-4-hydroxy-4-methylcyclohexyl)methyl)amino)-3-nitrophenyl)sulfonyl)benzamide] | 0.95 | 2.2 | 0.25 | 534 | 2.6 | 253 | 5.5 | much lower |
| COc1cc(CN2CCN(C3CC4(CCN(c5ccc(C(=O)NS(=O)(=O)c6ccc(NC[C@H]7CC[C@](C)(O)CC7)c([N+](=O)[O-])c6)c(Oc6cnc7[nH]ccc7c6)c5)CC4)C3)[C@H](c3ccccc3C(C)C)C2)ccc1C1CC1 [Example 257] | 0.99 | 2.5 | 0.53 | 372 | 3.7 | 254 | 5.5 | – |
| COc1cc(CN2CCN(C3CC4(C3)CN(c3ccc(C(=O)NS(=O)(=O)c5ccc(NC[C@H]6CC[C@](C)(O)CC6)c([N+](=O)[O-])c5)c(Oc5cnc6[nH]cc(F)c6c5)c3)C4)[C@H](c3ccccc3C(C)C)C2)ccc1C [Example 274, 2-((3-fluoro-1H-pyrrolo[2,3-b]pyridin-5-yl)oxy)-N-((4-((((1r,4r)-4-hydroxy-4-methylcyclohexyl)methyl)amino)-3-nitrophenyl)sulfonyl)-4-(6-((R)-2-(2-isopropylphenyl)-4-(3-methoxy-4-methylbenzyl)piperazin-1-yl)-2-azaspiro[3.3]heptan-2-yl) benzamide] | 0.85 | 1.5 | 0.29 | 344 | 4 | 289 | 4.8 | – |
| COc1cc(CN2CCN(C3CC4(CCN(c5ccc(C(=O)NS(=O)(=O)c6ccc(NC[C@H]7CC[C@](C)(O)CC7)c([N+](=O)[O-])c6)c(Oc6cnc7[nH]cc(F)c7c6)c5)CC4)C3)[C@H](c3ccccc3C(C)C)C2)cc2ccoc12 [Example 281, 2-((3-fluoro-1H-pyrrolo[2,3-b]pyridin-5-yl)oxy)-N-((4-((((1r,4r)-4-hydroxy-4-methylcyclohexyl)methyl)amino)-3-nitrophenyl)sulfonyl)-4-(2-((R)-2-(2-isopropylphenyl)-4-((7-methoxybenzofuran-5-yl)methyl)piperazin-1-yl)-7-azaspiro[3.5]nonan-7-yl)benzamide] | 0.99 | 2.3 | 0.31 | 870 | 1.6 | 564 | 2.5 | – |
| COc1cc(CN2CCN(C3CC4(CCN(c5ccc(C(=O)NS(=O)(=O)c6ccc(NC[C@H]7CC[C@](C)(O)CC7)c([N+](=O)[O-])c6)c(Oc6cnc7[nH]cc(F)c7c6)c5)CC4)C3)[C@H](c3ccccc3C(C)C)C2)cc2c1OCC2(C)C [Example 285, 2-((3-fluoro-1H-pyrrolo[2,3-b]pyridin-5-yl)oxy)-N-((4-((((1r,4r)-4-hydroxy-4-methylcyclohexyl)methyl)amino)-3-nitrophenyl)sulfonyl)-4-(2-((R)-2-(2-isopropylphenyl)-4-((7-methoxy-3,3-dimethyl-2,3-dihydrobenzofuran-5-yl)methyl)piperazin-1-yl)-7-azaspiro [3.5]nonan-7-yl)benzamide] | 0.87 | 3.4 | 0.41 | 299 | 4.6 | 177 | 7.8 | – |
| COc1cc(CN2CCN(C3CC4(C3)CN(c3ccc(C(=O)NS(=O)(=O)c5ccc(NC[C@H]6CC[C@](C)(O)CC6)c([N+](=O)[O-])c5)c(Oc5cnc6[nH]cc(F)c6c5)c3)C4)[C@H](c3ccccc3C(C)C)C2)cc2c1OCCC2 [Example 312, 2-((3-fluoro-1H-pyrrolo[2,3-b]pyridin-5-yl)oxy)-N-((4-((((1r,4r)-4-hydroxy-4-methylcyclohexyl)methyl)amino)-3-nitrophenyl)sulfonyl)-4-(6-((R)-2-(2-isopropylphenyl)-4-((8-methoxychroman-6-yl)methyl)piperazin-1-yl)-2-azaspiro[3.3]heptan-2-yl)benzamide] | 0.27 | 2.9 | 0.3 | 423 | 3.3 | 362 | 3.8 | – |
| COc1cc(CN2CCN(C3CC4(C3)CN(c3ccc(C(=O)NS(=O)(=O)c5ccc(NC[C@H]6CC[C@](C)(O)CC6)c([N+](=O)[O-])c5)c(Oc5cnc6[nH]cc(F)c6c5)c3)C4)[C@H](c3ccccc3C(C)C)C2)ccc1OC1CC1 [Example 321, 4-(6-((R)-4-(4-cyclopropoxy-3-methoxybenzyl)-2-(2-isopropylphenyl)piperazin-1-yl)-2-azaspiro[3.3]heptan-2-yl)-2-((3-fluoro-1H-pyrolo[2,3-b]pyridin-5-yl)oxy)-N-((4-((((1r,4r)-4-hydroxy-4-methylcyclohexy)methyl)amino)-3-nitrophenyl)sulfonyl)benzamide] | 0.35 | 2 | 0.24 | 1020 | 1.4 | 628 | 2.2 | – |
| COc1cc(CN2CCN(C3CC4(C3)CN(c3ccc(C(=O)NS(=O)(=O)c5ccc(NC[C@H]6CC[C@](C)(O)CC6)c([N+](=O)[O-])c5)c(Oc5cnc6[nH]cc(F)c6c5)c3)C4)[C@H](c3ccccc3C(C)C)C2)cc2cc(C)oc12 [Example 338, 2-((3-fluoro-1H-pyrrolo[2,3-b]pyridin-5-yl)oxy)-N-((4-((((1r,4r)-4-hydroxy-4-methylcyclohexyl)methyl)amino)-3-nitrophenyl)sulfonyl)-4-(6-((R)-2-(2-isopropylphenyl)-4-((7-methoxy-2-methylbenzofuran-5-yl)methyl)piperazin-1-yl)-2-azaspiro[3.3]heptan-2-yl)benzamide] | 1.4 | 2.3 | 0.15 | 659 | 2.1 | 538 | 2.6 | much lower |
